The results in this text go back to PubChem BioAssay (NCI).

SMILES strings stand for the structures. Several values for one entry are separate records, joined by “and”; a condition that tells them apart may be missing. Equal entries are not always repeated.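 Five compound concentrations were applied to cells in 96-well plates for 48 hours; endpoints were derived by simple linear interpolation of the resulting dose-response curve. GI50 marks 50% less growth. At the TGI there is no net growth.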

What all share (test): NCI-60 cell line screen, 48 h
The test system of experiment [1] is BT-549 breast.
For experiment [2], the system named is HS 578T breast.
Experiment [3] deals with NCI/ADR-RES ovarian.
The subject of experiment [4] is OVCAR-4 ovarian.
In experiment [5] the test system is SK-MEL-5 melanoma.
The test system of experiment [6] is SNB-19 CNS.

For `Cc1ccc(NCSc2ccc(Cl)cc2)cc1`, the GI50 in experiment [1] was 6.43 µM; in experiment [2], 24.7 µM; in experiment [3], over 100 µM; in experiment [4], 5.06 µM; in experiment [5] it was over 100 µM; in experiment [6], 46.9 µM. Further, the TGI in experiment [1], in experiment [2], in experiment [3], in experiment [4], in experiment [5] and in experiment [6] was over 100 µM in each case.
As for `CC1Cc2c(N(C)C)ncnc2N(C)c2ccc(Cl)cc21` (stereo unspecified), the GI50 in experiment [1] was 6.63 µM; in experiment [2], 3.08 µM; in experiment [3] it was 2.4 µM; in experiment [4], 9.76 µM; in experiment [5], 3.65 µM; in experiment [6], 5.81 µM. Further, the TGI in experiment [1] is 32.1 µM; in experiment [2], over 100 µM; in experiment [3] it was 23.9 µM; in experiment [4], over 100 µM; in experiment [5], 13.8 µM; in experiment [6] it was over 100 µM.
Consider `COc1cc(C2C3=C(COC3=O)N(CCO)c3cc4c(cc32)CCC4)cc(OC)c1O` (stereo unspecified), for which the GI50 is 0.68 µM in experiment [1]; 0.106 µM in experiment [2]; 2.45 µM in experiment [3]; 0.278 µM in experiment [4]; 0.102 µM in experiment [5]; 0.318 µM in experiment [6]. For the same molecule, the TGI in experiment [1] is over 9.16 µM; in experiment [2] it was 11.4 µM; in experiment [3], over 21 µM; in experiment [4], over 32.5 µM; in experiment [5] it was over 11 µM; in experiment [6], over 32.5 µM.
In the case of `CO[C@H]1C=C[C@]23c4cc5c(cc4CN(CC2O)[C@@H]3C1)OCO5` (stereo partly specified), the TGI in experiment [1] is 13.7 µM; in experiment [2], 81.9 µM; in experiment [3], 58.8 µM; in experiment [4], 11.3 µM; in experiment [5] it was 17.8 µM; in experiment [6] it was 40.9 µM.
As to `Cc1nn(-c2ccccc2)c2c1C1C(=C(c3ccc(Cl)cc3)N2)C(=O)Nc2ccccc21` (stereo unspecified), the GI50 in experiment [1] is 2.81 µM; in experiment [2], 8.59 µM; in experiment [3], 4.32 µM; in experiment [4] it was 5.33 µM; in experiment [5] it was 1.88 µM; in experiment [6], 5.28 µM. Further, the TGI in experiment [1] was 9.32 µM; in experiment [2], over 100 µM; in experiment [3] it was over 100 µM; in experiment [4], over 100 µM; in experiment [5] it was 4.31 µM; in experiment [6], over 100 µM.
Take `Cc1ccc(C2=Nc3c(N)ncnc3NC(c3cccc(Nc4ccnc5cc(C(F)(F)F)ccc45)c3)C2)cc1` (stereo unspecified): the GI50 in experiment [1] is 2.83 µM; in experiment [2], 4.01 µM; in experiment [3], 2.96 µM; in experiment [4], 4.33 µM; in experiment [5] it was 2.05 µM; in experiment [6], 6.71 µM. In addition, the TGI in experiment [1] was 13.4 µM; in experiment [2] it was over 100 µM; in experiment [3], 10.2 µM; in experiment [4], over 100 µM; in experiment [5] it was 4.24 µM; in experiment [6] it was over 100 µM.
For `Cc1ccc([P+](Cc2ccc([N+](=O)[O-])cc2)(c2ccc(C)cc2)c2ccc(C)cc2)cc1`, the GI50 in experiment [1] is 2.68 µM; in experiment [2], 3.46 µM; in experiment [3] it was 68.3 µM; in experiment [4], 2.2 µM; in experiment [5], 1.22 µM; in experiment [6] it was 3.25 µM. The TGI is 8.87 µM in experiment [1]; 17.7 µM in experiment [2]; over 100 µM in experiment [3]; 11.3 µM in experiment [4]; 2.52 µM in experiment [5]; 13.6 µM in experiment [6].
As for `CC(CC(=O)O)(CC(=O)O)C(=O)O`, the TGI in experiment [1], in experiment [2], in experiment [3], in experiment [4], in experiment [5] and in experiment [6] was over 100 µM throughout.
In the case of `COc1ccc(C2=CC(c3cc(OC)c(OC)c(OC)c3)n3ncnc3N2)cc1` (stereo unspecified), the GI50 in experiment [1] was 0.0684 µM; in experiment [2], 0.0734 µM; in experiment [3], 0.0444 µM; in experiment [4] it was 0.391 µM; in experiment [5], 0.0427 µM; in experiment [6], 0.0672 µM. For the same molecule, the TGI in experiment [1] was 2.04 µM; in experiment [2], over 100 µM; in experiment [3] it was 20.3 µM; in experiment [4] it was 39.5 µM; in experiment [5] it was 0.374 µM; in experiment [6], over 100 µM.
For the molecule `Cn1c(=O)n(-c2ccc(C(C)(C)C#N)cc2)c2c3cc(-c4cnc5ccccc5c4)ccc3ncc21`, the GI50 in experiment [1] is 0.00493 µM and < 0.01 µM; in experiment [2], < 0.01 µM and 0.00204 µM; in experiment [3] it was 0.0212 µM and 0.00849 µM and 0.0197 µM; in experiment [4] it was 0.0162 µM and 0.00409 µM and 0.01 µM; in experiment [5], 0.0154 µM and 0.00646 µM and < 0.0152 µM; in experiment [6], 0.012 µM and 0.00605 µM and 0.0102 µM. Besides, the TGI is 0.0195 µM and 0.00587 µM in experiment [2]; over 100 µM in experiment [3]; 0.0911 µM and 0.106 µM and 0.0859 µM in experiment [5]; over 100 µM in experiment [6].
With `CC1(C)N=C(N)N=C(N)N1c1ccc(OCC(=O)Nc2cccc(S(=O)(=O)F)c2)c(Cl)c1`, in experiment [1], the GI50 is over 100 µM. For the same molecule, the TGI in experiment [1] is over 100 µM; in experiment [2], over 100 µM; in experiment [3], over 100 µM; in experiment [4], over 100 µM; in experiment [5] it was over 91.9 µM; in experiment [6], over 100 µM.
For the molecule `COc1cccc(-c2nn(-c3ccccc3)cc2-c2ccnc(NCCNC(=O)Nc3ccc(Cl)c(Cl)c3)c2)c1`, the GI50 in experiment [1] was 2.94 µM; in experiment [2] it was 1.96 µM; in experiment [3], 2.08 µM; in experiment [4] it was 3.25 µM; in experiment [5], 1.95 µM; in experiment [6], 2.63 µM. Moreover, the TGI in experiment [1] stood at 10.4 µM; in experiment [2], 5.19 µM; in experiment [3] it was 5.64 µM; in experiment [4], 16.2 µM; in experiment [5], 3.71 µM; in experiment [6], 9.8 µM.
With `O=C(/C=C/N1CCN(c2cccc(C(F)(F)F)c2)CC1)c1ccc(Cl)cc1Cl`, the GI50 is 20.5 µM in experiment [1]; 27.5 µM in experiment [2]; 21.7 µM in experiment [3]; 25.1 µM in experiment [4]; 19.2 µM in experiment [5]; 47.7 µM in experiment [6]. Also, the TGI in experiment [1] is 40.3 µM; in experiment [2], 63.8 µM; in experiment [3], 50.8 µM; in experiment [4] it was 53.2 µM; in experiment [5], 36.9 µM; in experiment [6], over 100 µM.
In the case of `CC[C@]12C=CCN3CC[C@]4(C(=C(C(=O)OC)C1)Nc1cc(O)ccc14)[C@@H]32`, the GI50 in experiment [1] is 20.6 µM; in experiment [2], 15.5 µM; in experiment [3] it was 14.4 µM; in experiment [4] it was 22 µM; in experiment [5], 14.8 µM; in experiment [6], 18 µM. Moreover, the TGI worked out at 41.9 µM in experiment [1]; 58.1 µM in experiment [2]; 33.6 µM in experiment [3]; 76.4 µM in experiment [4]; 28.3 µM in experiment [5]; 44.2 µM in experiment [6].
Take `Nc1ncnc2occ(-c3ccc(NC(=O)Nc4cc(C(F)(F)F)cc(C(F)(F)F)c4)cc3)c12`: the GI50 is 2.66 µM in experiment [1]; 2.12 µM in experiment [2]; 3.44 µM in experiment [3]; 1.81 µM in experiment [4]; 3.52 µM in experiment [5]; 4.1 µM in experiment [6]. Moreover, the TGI in experiment [1] is 5.77 µM; in experiment [2] it was 8.03 µM; in experiment [3] it was 9.07 µM; in experiment [4] it was 5.92 µM; in experiment [5] it was 6.82 µM; in experiment [6], 9.54 µM.
Take `CC(CS(=O)(=O)Cc1ccccc1)C(N)=O` (stereo unspecified): the TGI in experiment [1], in experiment [2], in experiment [3], in experiment [4], in experiment [5] and in experiment [6] was over 100 µM throughout.
For `O=C(N[C@@H]1CCCc2ccccc21)[C@H](CCC(=O)N1CCN(C2CCCCC2)CC1)N1C(=O)[C@@H](N2C(=O)OC[C@@H]2c2ccccc2)[C@H]1/C=C/c1ccccc1`, the GI50 is 1.76 µM in experiment [1]; 3.52 µM in experiment [2]; 2.78 µM in experiment [3]; 3.11 µM in experiment [4]; 1.37 µM in experiment [5]; 3.66 µM in experiment [6]. For the same molecule, the TGI was 3.92 µM in experiment [1]; 21.1 µM in experiment [2]; 10.6 µM in experiment [3]; 32 µM in experiment [4]; 2.71 µM in experiment [5]; 25.2 µM in experiment [6].
In the case of `COc1ccc2nc3ccc(OC)cc3c(SCCCN)c2c1`, the GI50 in experiment [1] is 10.5 µM; in experiment [2], 5.9 µM; in experiment [3], 13.1 µM; in experiment [4], 5.02 µM; in experiment [5], 7.82 µM; in experiment [6], 14.4 µM. In addition, the TGI came to 23.4 µM in experiment [1]; 15.5 µM in experiment [2]; 37.1 µM in experiment [3]; 17 µM in experiment [4]; 25.7 µM in experiment [5]; 36.7 µM in experiment [6].
